These results are taken from ChEMBL document CHEMBL2074339, “The use of a dendrimer-propranolol prodrug to bypass efflux transporters and enhance oral bioavailability” (J Control Release, 2004).

The target in data set [1] is T1, ATP-dependent translocase ABCB1 (Homo sapiens, UniProt P08183). Put plainly: TP_TRANSPORTER: transepithelial transport in Caco2 cells. The format is functional, cell-based. Particulars: caco-2. (In general: Caco-2 cells form a polarised layer with tight junctions and transporters.)
T1 sequence (P08183 whole entry): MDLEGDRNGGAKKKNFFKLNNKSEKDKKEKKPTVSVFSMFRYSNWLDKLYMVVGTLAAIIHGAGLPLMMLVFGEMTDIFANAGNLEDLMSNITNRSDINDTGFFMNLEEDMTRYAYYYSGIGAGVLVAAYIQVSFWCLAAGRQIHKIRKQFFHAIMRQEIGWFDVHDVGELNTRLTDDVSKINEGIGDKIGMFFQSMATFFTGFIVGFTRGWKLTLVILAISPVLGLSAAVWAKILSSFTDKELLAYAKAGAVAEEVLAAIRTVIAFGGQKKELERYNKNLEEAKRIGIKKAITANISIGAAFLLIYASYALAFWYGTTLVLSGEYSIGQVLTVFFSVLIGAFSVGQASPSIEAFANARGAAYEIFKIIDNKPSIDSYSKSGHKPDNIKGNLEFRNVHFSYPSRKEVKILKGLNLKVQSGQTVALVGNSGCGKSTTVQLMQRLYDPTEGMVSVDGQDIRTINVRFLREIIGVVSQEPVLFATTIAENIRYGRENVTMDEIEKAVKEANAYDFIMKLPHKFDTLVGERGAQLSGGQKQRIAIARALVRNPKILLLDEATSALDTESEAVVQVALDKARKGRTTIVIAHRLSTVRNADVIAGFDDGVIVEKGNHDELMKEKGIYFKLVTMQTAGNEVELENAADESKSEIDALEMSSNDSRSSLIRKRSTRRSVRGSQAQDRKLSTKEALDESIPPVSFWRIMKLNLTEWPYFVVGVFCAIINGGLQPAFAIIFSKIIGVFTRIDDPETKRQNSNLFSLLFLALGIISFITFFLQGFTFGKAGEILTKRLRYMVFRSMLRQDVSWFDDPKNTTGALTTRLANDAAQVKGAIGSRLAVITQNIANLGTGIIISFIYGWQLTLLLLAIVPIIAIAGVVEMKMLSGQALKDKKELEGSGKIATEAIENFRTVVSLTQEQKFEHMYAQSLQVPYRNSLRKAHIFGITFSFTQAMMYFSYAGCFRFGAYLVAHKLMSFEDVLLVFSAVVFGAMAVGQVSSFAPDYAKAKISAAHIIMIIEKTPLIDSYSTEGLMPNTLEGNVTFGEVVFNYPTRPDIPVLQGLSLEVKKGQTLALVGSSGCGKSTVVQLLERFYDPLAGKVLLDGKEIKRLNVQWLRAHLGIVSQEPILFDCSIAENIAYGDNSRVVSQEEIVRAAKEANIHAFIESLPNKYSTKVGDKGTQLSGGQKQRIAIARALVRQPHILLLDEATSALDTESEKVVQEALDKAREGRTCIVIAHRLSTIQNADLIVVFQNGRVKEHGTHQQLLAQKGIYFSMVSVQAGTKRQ
For data set [2], the target named is T1, ATP-dependent translocase ABCB1. The data set is described as follows: TP_TRANSPORTER: transepithelial transport of propranolol in Caco2 cells. It is filed as functional, cell-based. The settings on record: caco-2.

As for `CC(C)NCC(O)COc1cccc2ccccc12` (configuration not stated) [PROPRANOLOL], the Activity entry in data set [1] is “substrate [+]”.

Regarding G3 PAMAM DENDRIMER, the Activity entry in data set [2] is “is not an inhibitor [-]”.
